The text below walks through data of US11242344B2, “(4-hydroxypyrrolidin-2-yl)-heterocyclic compounds and methods of use thereof” (Genentech, Inc., priority 2017, dated 2022).

A value given as a limit tells only on which side of the number the result lay.

One experiment has as its target VHL Elongin B/C complex (Homo sapiens (Human), UniProt P40337). The experiment can be described thus: Fluorescence Polarization (FP) VHL Binding Assay. The note with it: VHL binding, FP assay; geometric mean where more than one measurement. The method, then:
The binding of test compounds to the VHL Elongin B/C complex was measured using a fluorescence polarization tracer competition assay. The VHL/Elongin B/C protein complex used in the assay was generated as follows. The coding region for amino acids E55-D213 of human VHL with N-terminal His6 tag with a TEV-protease cleavage site was co-expressed with Elongin B (residues M1-Q118) and Elongin C (Residues M17-C112) in E. coli. […] The purified VHL/Elongin B/C complex was dialyzed into formulation buffer: 20 mM Bis-Tris pH7.0, 150 mM NaCl, 1 mM DTT. A VHL fluorescence polarization probe (prepared in Example 91), consisted of a VHL ligand coupled to carboxytetramethylrhodamine (TAMRA); […] Compounds were prepared as a serial dilution in DMSO at a concentration 25-fold higher than the final desired concentration and acoustically dispensed (400 nl) into a ProxiPlate-384 Plus F, Black 384-shallow well Microplate (Part Number 6008260). DMSO was dispensed into wells designated for “VHL control” (without compound) wells. The “Assay Buffer” consisted of 50 mM Tris pH 8.0, 120 mM NaCl, 0.005% Nonidet P-40, and 1% DMSO (v/v). Assay Buffer containing […] VHL Elongin B/C complex was prepared and 5 μl dispensed using a BioRapTR (Beckman Coulter) into each well of the assay plate. Assay Buffer was also dispensed into “no VHL control” wells using the same method. A “pre-assay” fluorescence measurement was made using an Infinite® M1000 (Tecan) plate reader (Excitation 530 nm, Emission 574 nm, Bandwidth 10 nm). Assay Buffer containing 3.34 nM of the VHL FP probe was prepared in Assay Buffer and 5 μl dispensed into each well of the assay plate using a BioRapTR (Beckman Coulter). The final VHL/Elongin B/C protein concentration is 2.64 nM and the final probe concentration is 1.67 nM. Assay plates were briefly centrifuged and incubated for 1 hour at room temperature. “Post-assay” fluorescence polarization measurements were made as described for the “pre-assay” fluorescence measurement. Fluorescence polarization was calculated for each sample; taking into account the “pre-assay” fluorescence measurements and subtracting the fluorescence signal of the compound/VHL only (“pre-assay”) measurements from the “post-assay” fluorescence polarization measurements, for each plane of polarization. The data were analyzed using Genedata Screener software and normalized to the “no VHL control” and “VHL control” (without compound). IC50 values were calculated using a four parameter curve fit (Robust method).

Experiment [1] has as its target VHL co-expressed with Elongins B and C (Homo sapiens (Human), UniProt P40337). Put plainly: Surface Plasmon Resonance Assay. The note with it: SPR measured VHL affinity; geometric mean where more than one measurement. The experiment is classed as binding. The protocol: Using a Biacore T200, […] tagged VHL co-expressed with Elongins B and C were immobilized to a Biacore SA chip in running buffer without DMSO. Compounds were tested individually at varying concentrations in running buffer (50 mM HEPES pH 7.2, 150 mM NaCl, 0.5 mM TCEP, 0.001% Tween 20, 0.2% PEG3350, 2% DMSO) at 20° C. Sensorgrams were run in order from low to high concentration using a flow rate of 80 μL/min. Association and disassociation times were varied depending on the estimated potency of the compound tested. […] Galdeano et al, J. Med. Chem. 2014, 57, 8657-8663, herein incorporated by reference) which retained greater than 75% of the activity over the course of the run. Analysis of the binding curves and determination of the kinetic parameters were done using evaluation software (Version 2.0, Biacore).

The target in experiment [2] is NanoLuc VHL fusion protein (Homo sapiens (Human), UniProt P40337). Put plainly: VHL HEK-293 BRET Assay (NanoBRET Target Engagement). The note with it: geometric mean where more than one measurement. The experiment is classed as cell-based. The protocol: The VHL NanoBRET™ Target Engagement Assay analyzes the apparent affinity of test compounds for VHL in cells by competitive displacement of a VHL NanoBRET™ tracer reversibly bound to a NanoLuc® VHL fusion protein stably expressed in the cells. Test compounds were transferred to the assay plate (384 Well White Non-Binding Corning Assay Plates (Corning-3574)) using an Echo 555 Liquid Handler (Labcyte) in 2.5 nL increments and, as appropriate, intermediate stock concentrations of compounds, in order to prepare a titration series. 50 nL of control compound (10 mM; parental unlabeled VHL antagonist; see structure below) and 50 nL of DMSO (negative control) were dispensed into the appropriate control wells. DMSO was backfilled to a final volume of 50 nL as required. 50 nl per well of 1 mM VHL NanoBRET™ Tracer in DMSO (NanoBRET™ Tracer-PEG2-590 (see structure below)) was transferred into each well using an Echo 555 (ultimately yielding a final concentration of 1 uM). HEK 293 RT VHL-NanoLuc® stable cells were cultured in DMEM High Glucose with Pyruvate, 10% fetal bovine serum, 2 mg/mL of Geneticin Selective Antibiotic (50 mg/ml) and 2 mM HEPES (1 M). Cells were seeded in Opti-MEM (Life Technologies-11058-021), 1.7×10^5 cells/mL, 40 μl per well into the assay plate, centrifuged at 500 rpm for 30 seconds and incubated for 2 hours. Max Signal control wells consisted of DMSO only treated wells. Minimum Signal control wells contained of 10 uM parental unlabeled VHL antagonist (control compound—see structure below). 3× Complete Substrate plus Inhibitor Solution was prepared in Opti-MEM (consists of a 1:166 dilution of NanoBRET™ Nano-Glo® Substrate plus a 1:500 dilution of Extracellular NanoLuc® Inhibitor in Opti-MEM), and 20 ul was dispensed into each well of the 384-well plate and centrifuged at 1000 rpm for 1 minute, then incubated for 2 minutes at room temperature. Background Signal control wells were prepared without tracer for background correction steps. Plates were read using a PerkinElmer Envision Reader (model 2104-0020) equipped with Luminescence option (Mirror: BRET2 Enh (PE Barcode 659), Emission Filter: Omega 610LP (Barcode 504), 2nd Emission Filter: Umbelliferone 460 (Barcode 207), Measurement height: 6.5 mm, Measurement time: 1 s). The raw BRET ratio values were calculated by dividing the acceptor emission value (610 nm) by the donor emission value (460 nm) for each sample. To correct for background, the BRET ratio in the absence of tracer (average of no-tracer control samples) was subtracted from the BRET ratio of each sample. Raw BRET units were converted to milliBRET units (mBU) by multiplying each raw BRET value by 1,000. The normalized NanoBRET™ signal was calculated relative to the Max Signal control wells (DMSO treated control wells) and the Minimum Signal control wells. Percentage inhibition was calculated relative to the Minimum Signal control and Maximum Signal control wells. IC50 values were derived by four parameter curve fitting using the Robust method.
Chain of NanoLuc VHL fusion protein (P40337 whole entry, looked up, the tested form may be a part): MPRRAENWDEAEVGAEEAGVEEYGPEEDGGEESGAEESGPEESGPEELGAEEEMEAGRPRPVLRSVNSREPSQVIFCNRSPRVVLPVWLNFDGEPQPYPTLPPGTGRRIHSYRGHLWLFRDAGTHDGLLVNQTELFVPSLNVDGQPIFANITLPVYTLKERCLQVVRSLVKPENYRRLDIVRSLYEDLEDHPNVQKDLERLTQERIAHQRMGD
Chain of NanoLuc VHL fusion protein (Q15370 whole entry partner, looked up, the tested form may be a part): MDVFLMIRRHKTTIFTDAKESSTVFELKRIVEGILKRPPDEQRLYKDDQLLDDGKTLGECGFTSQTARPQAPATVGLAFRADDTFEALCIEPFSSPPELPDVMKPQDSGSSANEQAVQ
Chain of NanoLuc VHL fusion protein (Q15369 whole entry partner, looked up, the tested form may be a part): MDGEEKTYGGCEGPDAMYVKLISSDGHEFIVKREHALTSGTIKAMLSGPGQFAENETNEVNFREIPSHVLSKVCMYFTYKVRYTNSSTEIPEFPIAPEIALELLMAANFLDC

Chain of VHL co-expressed with Elongins B and C (P40337 whole entry, looked up): as the sequence (P40337 whole entry, looked up, the tested form may be a part) above
Chain of VHL co-expressed with Elongins B and C (Q15370 whole entry partner, looked up): as the sequence (Q15370 whole entry partner, looked up, the tested form may be a part) above
Chain of VHL co-expressed with Elongins B and C (Q15369 whole entry partner, looked up): as the sequence (Q15369 whole entry partner, looked up, the tested form may be a part) above
Chain of VHL Elongin B/C complex (P40337 whole entry, looked up, the tested form may be a part): as the sequence (P40337 whole entry, looked up, the tested form may be a part) above
Chain of VHL Elongin B/C complex (Q15370 whole entry partner, looked up, the tested form may be a part): as the sequence (Q15370 whole entry partner, looked up, the tested form may be a part) above
Chain of VHL Elongin B/C complex (Q15369 whole entry partner, looked up, the tested form may be a part): as the sequence (Q15369 whole entry partner, looked up, the tested form may be a part) above

`Cc1ncsc1-c1ccc([C@]2(C)NC(C3C[C@@H](O)CN3C(=O)[C@H](C(C)C)N3Cc4ccccc4C3=O)=NC2=O)cc1` (single isomer, unassigned) [Example 123.1]: the IC50 at VHL Elongin B/C complex was at least 400 µM; in experiment [2] it was 100 µM. This compound displayed a Kd in experiment [1] of 55.6 µM.
Consider `Cc1cc(C(C(=O)N2C[C@H](O)C[C@H]2C2=NN(c3ccccc3)C(C)(C)N2)C(C)C)on1` (single isomer, unassigned) [Example 135.2], for which the values for the IC50 (at VHL Elongin B/C complex; in experiment [2]) were 9.32 µM and 5.67 µM, respectively. In experiment [1], this compound yielded a Kd of 6.55 µM.
With `Cc1cc([C@@H](C(=O)N2C[C@H](O)C[C@H]2C2=NOC(C)(c3ccc(-c4scnc4C)cc3)N2)C(C)C)on1` (single isomer, unassigned) [Example 129.2], the IC50 stood at 58.4 µM on VHL Elongin B/C complex and 77.9 µM in experiment [2]. The Kd in experiment [1] is 57 µM.
Regarding `Cc1cc([C@H](C(=O)N2C[C@H](O)C[C@H]2C2=NOC(c3ccc(Br)cc3)(C(F)(F)F)N2)C(C)C)on1` (single isomer, unassigned) [Example 133.3], the IC50 is 34.4 µM at VHL Elongin B/C complex and 22.6 µM in experiment [2]. Moreover, binding in experiment [1] was put at a Kd of 36.3 µM.
For `Cc1cc([C@H](C(=O)N2C[C@H](O)C[C@H]2C2=NOC3(CCc4ccccc43)N2)C(C)C)on1` (single isomer, unassigned) [Example 130.4], the half-maximal inhibitory concentration (IC50) at VHL Elongin B/C complex worked out at 17.5 µM; in experiment [2], 34.5 µM. In experiment [1], this compound returned a Kd of 4.24 µM.
The corresponding values for `Cc1cc([C@@H](C(=O)N2C[C@H](O)C[C@H]2C2=NOC(C)(c3ccc(-c4scnc4C)cc3)N2)C(C)C)on1` (single isomer, unassigned) [Example 129.1] are 79 µM, 100 µM and 48.1 µM.
In the same order, the values of `Cc1noc(C(C(=O)N2C[C@H](O)CC2C2=NC(=O)[C@](C)(c3ccc(-c4scnc4C)cc3)N2)C(C)C)n1` (single isomer, unassigned) [Example 117.2] are 1.62 µM, 1.9 µM and 0.625 µM.
For the compound `Cc1ncsc1-c1ccc([C@]2(C)NC(C3C[C@@H](O)CN3C(=O)C(c3cc(O)no3)C(C)C)=NC2=O)cc1` (single isomer, unassigned) [Example 116.1], the figures for the IC50 (on VHL Elongin B/C complex; in experiment [2]) were 4.35 µM and 100 µM, respectively. In experiment [1], the affinity, expressed as Kd, was 5.1 µM.
`Cc1cc([C@H](C(=O)N2C[C@H](O)C[C@H]2C2=NO[C@@](c3ccccc3)(C(F)(F)F)N2)C(C)C)on1` (mixture of isomers) [Example 114.3, (2S)-1-((2S,4R)-4-Hydroxy-2-(5-phenyl-5-(trifluoromethyl)-4,5-dihydro-1,2,4-oxadiazol-3-yl)pyrrolidin-1-yl)-3-methyl-2-(3-methylisoxazol-5-yl)butan-1-one and (2R)-1-((2S,4R)-4-Hydroxy-2-(5-phenyl-5-(trifluoromethyl)-4,5-dihydro-1,2,4-oxadiazol-3-yl)pyrrolidin-1-yl)-3-methyl-2-(3-methylisoxazol-5-yl)butan-1-one]: the IC50 on VHL Elongin B/C complex was found to be 47 µM; in experiment [2], 48.8 µM. The Kd in experiment [1] amounted to 8.8 µM.
Take `Cc1ncsc1-c1ccc([C@]2(C)NC(C3C[C@@H](O)CN3C(=O)C(c3cn(C)nn3)C(C)C)=NC2=O)cc1` (single isomer, unassigned) [Example 118.4]: the IC50 is at least 400 µM at VHL Elongin B/C complex and 100 µM in experiment [2]. This compound had a Kd in experiment [1] of 102 µM.
With `CC/C(=C(\c1ccc(O)cc1)c1ccc(OCCN(C)C(=O)CCCOCCOc2cc(C(C(=O)N3C[C@H](O)CC3C3=NC(=O)[C@](C)(c4ccc(-c5scnc5C)cc4)N3)C(C)C)on2)cc1)c1ccccc1` (single isomer, unassigned) [Example 1003.4], the IC50 (on VHL Elongin B/C complex; in experiment [2]) was at least 100 µM in each case. For the same compound, binding in experiment [1] was put at a Kd of 67.1 µM.
For the compound `Cc1ncsc1-c1ccc([C@]2(C)NC(C3C[C@@H](O)CN3C(=O)[C@H](C(C)C)N3Cc4ccccc4C3=O)=NC2=O)cc1` (single isomer, unassigned) [Example 123.2], the IC50 on VHL Elongin B/C complex was determined as 4.68 µM; in experiment [2] it was 5.48 µM. Besides, in experiment [1], the Kd was 3.98 µM.
In the same order, the values of `Cc1ncsc1-c1ccc([C@]2(C)NC(C3C[C@@H](O)CN3C(=O)[C@@H](NC(=O)C3(C#N)CC3)C(C)(C)C)=NC2=O)cc1` (single isomer, unassigned) [Example 111.2] are 4.97 µM, 5.11 µM and 1.86 µM.
As to `Cc1ncsc1-c1ccc([C@]2(C)NC(C3C[C@@H](O)CN3C(=O)C3N(S(C)(=O)=O)CCC3(C)C)=NC2=O)cc1` (single isomer, unassigned) [Example 125.4], the figures for the IC50 (at VHL Elongin B/C complex; in experiment [2]) were at least 400 µM and 100 µM, respectively. This compound returned a Kd in experiment [1] of at least 150 µM.
For the compound `C#Cc1cccc(Nc2ncnc3cc(OCCOC)c(OCCOCC#CC#CCOc4cc(C(C(=O)N5C[C@H](O)CC5C5=NC(=O)[C@](C)(c6ccc(-c7scnc7C)cc6)N5)C(C)C)on4)cc23)c1` (single isomer, unassigned) [Example 1004.2], the IC50 on VHL Elongin B/C complex was 75.8 µM; in experiment [2], 46.4 µM.
Consider `Cc1cc(C(C(=O)N2C[C@H](O)CC2C2=NS(=O)(=O)CN2)C(C)C)on1` (single isomer, unassigned) [Example 137.3], for which the figures for the IC50 (on VHL Elongin B/C complex; in experiment [2]) were at least 400 µM and at least 100 µM, respectively.
Consider `Cc1cc(C(C(=O)N2C[C@H](O)CC2C2=NS(=O)(=O)CN2)C(C)C)on1` (single isomer, unassigned) [Example 137.2], for which the IC50 at VHL Elongin B/C complex was 47.3 µM; in experiment [2], at least 100 µM.
